Laboratory results: patent US20260184707A1, “PHARMACEUTICAL COMPOUNDS FOR THE TREATMENT OF COMPLEMENT MEDIATED DISORDERS” (ALEXION PHARMACEUTICALS, INC., priority 2022, published 2026)
pIC50: −log10 of the molar value.

Molecular target: T1, Human complement C1s enzyme (Homo sapiens, UniProt P09871)
T1 construct: purified from human serum, Complement Technology, Inc; purchased Complement Technology, Inc; host or cells: human serum (plasma-derived native protein)
T1 sequence (P09871 438-688 limits assumed): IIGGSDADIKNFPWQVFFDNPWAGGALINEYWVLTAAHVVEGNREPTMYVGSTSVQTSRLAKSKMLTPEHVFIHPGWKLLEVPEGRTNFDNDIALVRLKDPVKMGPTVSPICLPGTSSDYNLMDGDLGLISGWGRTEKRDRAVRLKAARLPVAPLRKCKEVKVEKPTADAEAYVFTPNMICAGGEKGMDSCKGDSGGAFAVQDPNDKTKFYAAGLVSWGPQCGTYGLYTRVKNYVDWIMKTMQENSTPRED
T1 sequence (P09871 16-437 partner limits assumed): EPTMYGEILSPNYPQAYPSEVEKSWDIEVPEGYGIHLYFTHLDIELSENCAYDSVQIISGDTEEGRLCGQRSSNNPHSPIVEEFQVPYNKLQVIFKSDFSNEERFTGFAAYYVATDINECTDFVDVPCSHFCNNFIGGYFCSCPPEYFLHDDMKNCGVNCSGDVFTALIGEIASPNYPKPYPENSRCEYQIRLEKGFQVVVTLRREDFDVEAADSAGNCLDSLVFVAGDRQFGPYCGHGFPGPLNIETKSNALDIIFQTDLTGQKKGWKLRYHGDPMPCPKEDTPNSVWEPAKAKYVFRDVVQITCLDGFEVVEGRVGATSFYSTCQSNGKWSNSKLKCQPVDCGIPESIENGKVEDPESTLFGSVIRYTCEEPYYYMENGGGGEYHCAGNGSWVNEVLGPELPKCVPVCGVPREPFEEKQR
Test: Human C1s enzyme assay
Type: biochemical
Conditions: human complement C1s enzyme 1.16 nM, substrate Z-L-Lys-SBzl, A405; read-out: IC50 (Stars)
Procedure, shortened: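 Serum-purified human C1s (1.16 nM final) preincubated 5 min at room temperature with compound in 50 mM Tris, 1 M NaCl, pH 7.5. Z-L-Lys-SBzl and DTNB added at 100 μM each; A405 recorded every 30 s. IC50 from nonlinear regression of reaction rates versus compound concentration.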

Row | Compound | pIC50
1 | O=C(Cn1c(-c2ccccc2)ncc(NC(=O)c2ccc(-c3ccc(F)cc3F)cc2)c1=O)NCc1cc2cnccc2[nH]1 [Compound 92, N-(1-(2-(((1H-pyrrolo[3,2-c]pyridin-2-yl)methyl)amino)-2-oxoethyl)-6-oxo-2-phenyl-1,6-dihydropyrimidin-5-yl)-2′,4′-difluoro-[1,1′-biphenyl]-4-carboxamide] | > 7.00
2 | O=C(Cn1c(-c2ccccc2)ncc(NC(=O)c2ccc(-c3cnco3)cc2)c1=O)NCc1cc2cnccc2[nH]1 [Compound 93, N-(1-(2-(((1H-pyrrolo[3,2-c]pyridin-2-yl)methyl)amino)-2-oxoethyl)-6-oxo-2-phenyl-1,6-dihydropyrimidin-5-yl)-4-(oxazol-5-yl)benzamide] | > 7.00
3 | O=C(Cn1c(-c2ccccc2)ncc(NC(=O)c2ccc(Oc3nccs3)cc2)c1=O)NCc1cc2cnccc2[nH]1 [Compound 94, N-(1-(2-(((1H-pyrrolo[3,2-c]pyridin-2-yl)methyl)amino)-2-oxoethyl)-6-oxo-2-phenyl-1,6-dihydropyrimidin-5-yl)-4-(thiazol-2-yloxy)benzamide] | > 7.00
4 | CO[C@@H]1CO[C@H]2[C@@H]1OC[C@H]2OCCCNc1cnc(-c2ccccc2)n(CC(=O)NCc2cc3cnccc3[nH]2)c1=O [Compound 95, N-((1H-pyrrolo[3,2-c]pyridine-2-yl)methyl)-2-(5-((3-(((3R,3aR,6R,6aR)-6-methoxyhexahydrofuro[3,2-b]furan-3-yl)oxy)propyl)amino)-6-oxo-2-phenylpyrimidin-1(6H)-yl)acetamide] | > 7.00
5 | O=C(Cn1c(-c2ccc(S(F)(F)(F)(F)F)cc2)ncc(NCCCc2ccccc2)c1=O)NCc1cc2cnccc2[nH]1 [Compound 96, N-((1H-pyrrolo[3,2-c]pyridine-2-yl)methyl)-2-(6-oxo-2-(4-(pentafluoro-λ^6-sulfanyl)phenyl)-5-((3-phenylpropyl)amino)pyrimidin-1(6H)-yl)acetamide] | > 7.00
6 | O=C(Cn1c(-c2ccccc2)ncc(NC(=O)c2ccc3oc4ccccc4c3c2)c1=O)NCc1cc2cnccc2[nH]1 [Compound 97, N-(1-(2-(((1H-pyrrolo[3,2-c]pyridin-2-yl)methyl)amino)-2-oxoethyl)-6-oxo-2-phenyl-1,6-dihydropyrimidin-5-yl)dibenzo [b,d]furan-2-carboxamide] | > 7.00
7 | COc1ccc(-c2ccc(C(=O)Nc3cnc(-c4ccccc4)n(CC(=O)NCc4cc5cnccc5[nH]4)c3=O)cc2)cc1 [Compound 98, N-(1-(2-(((1H-pyrrolo[3,2-c]pyridin-2-yl)methyl)amino)-2-oxoethyl)-6-oxo-2-phenyl-1,6-dihydropyrimidin-5-yl)-4′-methoxy-[1,1′-biphenyl]-4-carboxamide] | > 7.00
8 | O=C(Cn1c(-c2ccccc2)ncc(NC(=O)c2ccc(-c3ccc(F)cc3)cc2)c1=O)NCc1cc2cnccc2[nH]1 [Compound 99, N-(1-(2-(((1H-pyrrolo[3,2-c]pyridin-2-yl)methyl)amino)-2-oxoethyl)-6-oxo-2-phenyl-1,6-dihydropyrimidin-5-yl)-4′-fluoro-[1,1′-biphenyl]-4-carboxamide] | > 7.00
9 | O=C(Cn1c(-c2ccccc2)cnc(NC(=O)c2ccc(-c3ccccc3)cc2)c1=O)NCc1cc2cnccc2[nH]1 [Compound 100, N-(4-(2-(((1H-pyrrolo[3,2-c]pyridin-2-yl)methyl)amino)-2-oxoethyl)-3-oxo-5-phenyl-3,4-dihydropyrazin-2-yl)-[1,1′-biphenyl]-4-carboxamide] | > 7.00
10 | O=C(Cn1c(-c2ccccc2)cnc(NC(=O)c2ccc3oc4ccccc4c3c2)c1=O)NCc1cc2cnccc2[nH]1 [Compound 101, N-(4-(2-(((1H-pyrrolo[3,2-c]pyridin-2-yl)methyl)amino)-2-oxoethyl)-3-oxo-5-phenyl-3,4-dihydropyrazin-2-yl)dibenzo [b,d]furan-2-carboxamide] | > 7.00
11 | O=C(Cn1c(-c2ccccc2)ncc(NC(=O)c2cccc(-c3ccco3)c2)c1=O)NCc1cc2cnccc2[nH]1 [Compound 102, N-(1-(2-(((1H-pyrrolo[3,2-c]pyridin-2-yl)methyl)amino)-2-oxoethyl)-6-oxo-2-phenyl-1,6-dihydropyrimidin-5-yl)-3-(furan-2-yl)benzamide] | > 7.00
12 | O=C(Cn1c(-c2ccccc2)ncc(NCCCc2ccc(OC3COC3)cc2)c1=O)NCc1cc2cnccc2[nH]1 [Compound 103, N-((1H-pyrrolo[3,2-c]pyridine-2-yl)methyl)-2-(5-((3-(4-(oxetan-3-yl-oxy)phenyl)propyl)amino)-6-oxo-2-phenylpyrimidin-1(6H)-yl)acetamide] | > 7.00
13 | O=C(Cn1c(-c2ccccc2)ncc(NCCCc2ccc(S(F)(F)(F)(F)F)cc2)c1=O)NCc1cc2cnccc2[nH]1 [Compound 104, N-((1H-pyrrolo[3,2-c]pyridin-2-yl)methyl)-2-(6-oxo-5-((3-(4-(pentafluoro-lambda6-sulfaneyl)phenyl)propyl)-amino)-2-phenylpyrimidin-1(6H)-yl)acetamide] | > 7.00
14 | CS(=N)(=O)c1ccc(CCCNc2cnc(-c3ccccc3)n(CC(=O)NCc3cc4cnccc4[nH]3)c2=O)cc1 (centres unmarked) [Compound 105, N-((1H-pyrrolo[3,2-c]pyridine-2-yl)methyl)-2-(5-((3-(4-(S-methylsulfonimidoyl)phenyl)propyl)amino)-6-oxo-2-phenylpyrimidin-1(6H)-yl) acetamide] | > 7.00
15 | O=C(Cn1c(-c2ccccc2)ncc(NC(=O)c2cnc(-c3ccccc3)s2)c1=O)NCc1cc2cnccc2[nH]1 [Compound 106, N-(1-(2-(((1H-pyrrolo[3,2-c]pyridin-2-yl)methyl)amino)-2-oxoethyl)-6-oxo-2-phenyl-1,6-dihydropyrimidin-5-yl)-2-phenylthiazole-5-carboxamide] | > 7.00
16 | O=C(Cn1c(-c2ccccc2)ncc(NC(=O)c2cnc(-c3ccccc3)o2)c1=O)NCc1cc2cnccc2[nH]1 [Compound 107, N-(1-(2-(((1H-pyrrolo[3,2-c]pyridin-2-yl)methyl)amino)-2-oxoethyl)-6-oxo-2-phenyl-1,6-dihydropyrimidin-5-yl)-2-phenyloxazole-5-carboxamide] | > 7.00
17 | O=C(Cn1c(-c2ccccc2)ncc(NC(=O)c2ccc(-c3ncco3)cc2)c1=O)NCc1cc2cnccc2[nH]1 [Compound 108, N-(1-(2-(((1H-pyrrolo[3,2-c]pyridin-2-yl)methyl)amino)-2-oxoethyl)-6-oxo-2-phenyl-1,6-dihydropyrimidin-5-yl)-4-(oxazol-2-yl)benzamide] | > 7.00
18 | COc1ccc(-c2cc(C(=O)Nc3cnc(-c4ccccc4)n(CC(=O)NCc4cc5cnccc5[nH]4)c3=O)on2)cc1 [Compound 109, N-(1-(2-(((1H-pyrrolo[3,2-c]pyridin-2-yl)methyl)amino)-2-oxoethyl)-6-oxo-2-phenyl-1,6-dihydropyrimidin-5-yl)-3-(4-methoxyphenyl)isoxazole-5-carboxamide] | > 7.00
19 | O=C(Cn1c(-c2ccccc2)ncc(NC(=O)c2ccc(-c3ccccc3)s2)c1=O)NCc1cc2cnccc2[nH]1 [Compound 110, N-(1-(2-(((1H-pyrrolo[3,2-c]pyridin-2-yl)methyl)amino)-2-oxoethyl)-6-oxo-2-phenyl-1,6-dihydropyrimidin-5-yl)-5-phenylthiophene-2-carbox-amide] | > 7.00
20 | O=C(Cn1c(-c2ccccc2)ncc(NC(=O)c2coc(-c3ccccc3)n2)c1=O)NCc1cc2cnccc2[nH]1 [Compound 111, N-(1-(2-(((1H-pyrrolo[3,2-c]pyridin-2-yl)methyl)amino)-2-oxoethyl)-6-oxo-2-phenyl-1,6-dihydropyrimidin-5-yl)-2-phenyloxazole-4-carboxamide] | > 7.00
21 | O=C(Cn1c(-c2ccccc2)ncc(NCc2ccc3c(c2)C(F)(F)c2ccccc2-3)c1=O)NCc1cc2cnccc2[nH]1 [Compound 112, N-((1H-pyrrolo[3,2-c]pyridin-2-yl)methyl)-2-(5-(((9,9-difluoro-9H-fluoren-2-yl)meth-yl)amino)-6-oxo-2-phenyl-pyrimidin-1(6H)-yl)acetamide] | > 7.00
22 | O=C(Cn1c(-c2ccccc2)ncc(NCCCc2cc3ccc2CCc2ccc(cc2)CC3)c1=O)NCc1cc2cnccc2[nH]1 [Compound 113, 2-(5-((3-(1,4(1,4)-dibenzenacyclohexaphane-1^2-yl)propyl)amino)-6-oxo-2-phenylpyrimidin-1(6H)-yl)-N-((1H-pyrrolo[3,2-c]pyridine-2-yl)methyl)acetamide] | > 7.00
23 | CS(=O)(=NC#N)c1ccc(-c2ncc(NCCCc3ccccc3)c(=O)n2CC(=O)NCc2cc3cnccc3[nH]2)cc1 (centres unmarked) [Compound 114, N-((1H-pyrrolo[3,2-c]pyridine-2-yl)methyl)-2-(2-(4-(N-cyano-S-methylsulfonimidoyl)phenyl)-6-oxo-5-((3-phenylpropyl)amino)pyrimidin-1(6H)-yl)acetamide] | > 7.00
